Results taken from US20210024542A1 (Torcept Therapeutics, Inc., priority 2018, published 2021).
“And” between values parts separate entries of the source, which are not always exact repeats. Equal values may be shown once. Read-outs that look alike come from different tables or passages of the source.

Key:
[1] = Whole blood concentrations in mice after IP dosing (LC-MS/MS); assay type: in vivo; conditions: 10 mg/kg IP QD x 3 days
Protocol: These determinations were made using protein precipitation, liquid chromatography (LC), and mass spectrometry (MS/MS). Ten μl aliquots of whole blood and matrix calibration standards were distributed in a 96-well plate; 10 μl aliquots of blank matrix for matrix blanks and control blanks were included as controls. Ten μl of water was added to each sample followed by vortexing. One hundred sixty […] of internal standard was added to each sample except the matrix blanks; 160 μl 70:30 water:acetonitrile (ACN) was added to matrix blanks. This was followed by a […]. One hundred fifty μl of the resultant supernatant was then transferred to a new 96-well plate and the samples blown to dryness at 35° C. The resultant product was then reconstituted with 90 μl ACN.

U-138MG = test: OncoPanel cell proliferation assay, U-138MG; assay type: cell-based, human
Protocol: (§1) Cells were grown in RPMI 1640, 10% FBS, 2 mM L-alanyl-L-glutamine, 1 mM Na pyruvate, or a special medium. Cells were seeded into 384-well plates and incubated in a humidified atmosphere of 5% CO2 at 37° C. Compounds were added the day following cell seeding. At the same time, a time zero untreated cell plate was generated. After a 3-day incubation period, cells were fixed and stained to allow fluorescence imaging of nuclei. Compounds (1 mM stock solutions) were serially diluted in half-log steps from the highest test concentration ([…]), and assayed over 10 concentrations with a maximum assay concentration of 0.1% DMSO. Automated fluorescence microscopy was carried out using a Molecular Devices ImageXpress Micro XL high-content imager, and images were collected with a 4× objective. 16-bit TIFF images were acquired and analyzed with MetaXpress 5.1.0.41 software.
(§2) Cell proliferation was measured by the fluorescence intensity of an incorporated nuclear dye. The output is referred to as the relative cell count, where the measured nuclear intensity is transformed to percent of control (POC) using the following formula: […]
(§3) Cellular response parameters were calculated using nonlinear regression to a sigmoidal single-site dose response model:
(§4) Where y is a response measured at concentration x, A and B are the lower and upper limits of the response, C is the concentration at the response midpoint (EC50), and D is the Hill Slope (Ref. 1).
(§5) EC50 is the test compound concentration at the curve inflection point or half the effective response (parameter C of the fitted curve solution). GI50 is the concentration needed to reduce the observed growth by half (midway between the curve maximum and the time zero value). “Cell Count Activity Area” is an estimate of the integrated area above the curve (Barretina, et al. The Cancer Cell Line Encyclopedia enables predictive modelling of anticancer drug sensitivity. Nature 483: 603-607). […] In rare instances, values <0 or >10 may be observed. […] Curve-fitting, calculations, and report generation was performed using a custom data reduction engine and MathIQ based software (AIM).

A431 = test: OncoPanel cell proliferation assay, A431; assay type: cell-based, human; conditions: for Relative cell count (%) Mean: A431
Protocol: as §1, §2, §3, §4, §5

Compound: CO[C@H]1C[C@@H]2CC[C@@H](C)[C@@](O)(O2)C(=O)C(=O)N2CCCC[C@H]2C(=O)O[C@H]([C@H](C)C[C@@H]2C[C@@H]3C[C@H]2C[C@H]3O)CC(=O)[C@H](C)/C=C(\C)[C@@H](O)[C@@H](OC)C(=O)[C@H](C)C[C@H](C)/C=C/C=C/C=C/1C [Formula I, 37R-hydroxynorbornylrapamycin]
- Concentration in Mouse Whole Blood, Mean ([1]; Day 1, 6.00 hrs): 1726 ng/mL
- Concentration in Mouse Whole Blood, individual animals 4-6 ([1]; Day 1, 6.00 hrs): 1970 ng/mL and 2300 ng/mL and 908 ng/mL
- Concentration in Mouse Whole Blood, Mean ([1]; Day 1, 24.0 hrs): 273 ng/mL
- Concentration in Mouse Whole Blood, individual animals 4-6 ([1]; Day 1, 24.0 hrs): 357 ng/mL and 320 ng/mL and 141 ng/mL
- Concentration in Mouse Whole Blood, individual animals 4-6 ([1]; Day 2, 1.00 hrs): AQL (Original value above quantitation limit (1000 ng/mL)) and 3130 ng/mL and 739 ng/mL
- Concentration in Mouse Whole Blood, Mean ([1]; Day 2, 1.00 hrs, one animal AQL): 1935 ng/mL
- Concentration in Mouse Whole Blood, Mean ([1]; Day 2, 2.00 hrs): 2820 ng/mL
- Concentration in Mouse Whole Blood, individual animals 4-6 ([1]; Day 2, 2.00 hrs): 3060 ng/mL and 2660 ng/mL and 2740 ng/mL
- Concentration in Mouse Whole Blood, individual animals 4-6 ([1]; Day 2, 6.00 hrs): AQL (Original value above quantitation limit (1000 ng/mL)) (2×) and 811 ng/mL
- Concentration in Mouse Whole Blood, Mean ([1]; Day 2, 6.00 hrs, two animals AQL): 811 ng/mL
- Concentration in Mouse Whole Blood, Mean ([1]; Day 2, 24.0 hrs): 335 ng/mL
- Concentration in Mouse Whole Blood, individual animals 4-6 ([1]; Day 2, 24.0 hrs): 335 ng/mL and 472 ng/mL and 199 ng/mL
- Concentration in Mouse Whole Blood, individual animals 4-6 ([1]; Day 3, 1.00 hrs): 3490 ng/mL and 3220 ng/mL
- Concentration in Mouse Whole Blood, individual animals 4-6 ([1]; Day 3, 2.00 hrs): 2530 ng/mL and 2680 ng/mL and 482 ng/mL
- Concentration in Mouse Whole Blood, individual animals 4-6 ([1]; Day 3, 6.00 hrs): 966 ng/mL and 2410 ng/mL and 773 ng/mL
- Concentration in Mouse Whole Blood, individual animals 4-6 ([1]; Day 3, 24.0 hrs): 548 ng/mL and 276 ng/mL
- EC50 (U-138MG; Homo sapiens, U138-MG, 72 h, U-138MG, 3-day incubation, read-out: Cell Count EC50): 0.0975 nM
- GI50 (U-138MG; Homo sapiens, U138-MG, 72 h, U-138MG, 3-day incubation, read-out: Cell Count GI50): 0.54 nM
- IC50 (U-138MG; Homo sapiens, U138-MG, 72 h, U-138MG, 3-day incubation, read-out: Cell Count IC50): > 1000 nM
- EC50 (U-138MG; Homo sapiens, U138-MG, Table 4 summary, U-138 MG, Glioblastoma, read-out: EC50): 0.097 nM
- Cell Count Activity Area (U-138MG; U-138MG, scale 0-10): 3.00
- Relative cell count (%) Mean (U-138MG; U-138MG, 1.00E+00 microM): 62.8%
- Relative cell count (%) Mean (U-138MG; U-138MG, 1.00E−01 microM): 66.3%
- Relative cell count (%) Mean (U-138MG; U-138MG, 1.00E−02 microM): 71.3%
- Relative cell count (%) Mean (U-138MG; U-138MG, 1.00E−03 microM): 70.6%
- Relative cell count (%) Mean (U-138MG; U-138MG, 1.01E−04 microM): 82.1%
- Relative cell count (%) Mean (U-138MG; U-138MG, 3.16E−01 microM): 64.5%
- Relative cell count (%) Mean (U-138MG; U-138MG, 3.17E−02 microM): 66.8%
- Relative cell count (%) Mean (U-138MG; U-138MG, 3.17E−03 microM): 70.9%
- Relative cell count (%) Mean (U-138MG; U-138MG, 3.18E−04 microM): 75.7%
- Relative cell count (%) Mean (U-138MG; U-138MG, 3.18E−05 microM): 98.2%
- Cell Count Activity Area (A431; A431, scale 0-10): 1.96
- Relative cell count (%) Mean (A431; 1.00E+00 microM): 64.2%
- Relative cell count (%) Mean (A431; 1.00E−01 microM): 72.8%
- Relative cell count (%) Mean (A431; 1.00E−02 microM): 84.2%
- Relative cell count (%) Mean (A431; 1.00E−03 microM): 93.5%
- Relative cell count (%) Mean (A431; 1.01E−04 microM): 101.0%
- Relative cell count (%) Mean (A431; 3.16E−01 microM): 66.5%
- Relative cell count (%) Mean (A431; 3.17E−02 microM): 78.2%
- Relative cell count (%) Mean (A431; 3.17E−03 microM): 84.4%
- Relative cell count (%) Mean (A431; 3.18E−04 microM): 91.9%
- Relative cell count (%) Mean (A431; 3.18E−05 microM): 104.6%
- EC50 (A431; Homo sapiens, A-431, 72 h, A431, 3-day incubation, read-out: Cell Count EC50): 14.3 nM
- GI50 (A431; Homo sapiens, A-431, 72 h, A431, 3-day incubation, read-out: Cell Count GI50): > 1000 nM
- IC50 (A431; Homo sapiens, A-431, 72 h, A431, 3-day incubation, read-out: Cell Count IC50): > 1000 nM
- EC50 (A431; Homo sapiens, A-431, Table 4 summary, A431, Skin, Head/Neck, read-out: EC50): 14 nM
